Data published in US20250257051A1, “SUBSTITUTED PYRIMIDINE COMPOUNDS AS TYK2 INHIBITORS” (1910 Genetics Inc., priority 2022, published 2025).

Molecular target: human TYK2 (JH2domain-pseudokinase) (Homo sapiens (Human), UniProt P29597)
Assay: TYK2 JH2 Domain Binding Assay (KINOMEscan competition binding)
Details: KINOMEscan; 11-point 3-fold dilution, top concentration 30,000 nM; Kd measurements in duplicate; read-out: TYK JH2 (Kd)
Procedure, shortened: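 Competition binding of HEK293-expressed, DNA-tagged TYK2 JH2 (G556–D888)-NFkB fusion in crude extract against immobilized ligand, 1 h at room temperature, 0.9% DMSO. Bead-bound kinase quantified by qPCR; Kd from 11-point 3-fold series (top 30,000 nM), duplicate, Hill fit with slope −1.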

Sequence of human TYK2 (JH2domain-pseudokinase) (P29597 556-888): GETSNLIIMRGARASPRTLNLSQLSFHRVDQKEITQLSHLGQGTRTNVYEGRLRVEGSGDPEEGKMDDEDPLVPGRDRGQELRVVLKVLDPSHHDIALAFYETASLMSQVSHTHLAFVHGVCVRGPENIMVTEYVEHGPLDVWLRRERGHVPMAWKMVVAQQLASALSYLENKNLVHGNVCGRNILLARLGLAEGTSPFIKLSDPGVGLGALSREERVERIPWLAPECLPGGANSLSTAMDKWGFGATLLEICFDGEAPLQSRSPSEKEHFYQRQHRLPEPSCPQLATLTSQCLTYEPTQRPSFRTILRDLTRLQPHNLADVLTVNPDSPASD

SMILES: CNC(=O)c1cnc(N2CCCN(C(=O)OC(C)(C)C)CC2)nc1Nc1ccccc1S(C)(=O)=O [Compound 66, Tert-Butyl 4-(S-(methylcarbamoyl)-4-((2-(methylsulfonyl)phenyl)amino)pyrimidin-2-yl)-1,4-diazepane-1-carboxylate]
- Kd: 6.3 µM
